In publication PMC6066978, “Chronic Intermittent Hypoxia-Induced Vascular Dysfunction in Rats is Reverted by N-Acetylcysteine Supplementation and Arginase Inhibition” (Frontiers in Physiology, 2018):

Molecular target: arginase
Experiment: arginase activity (urea production, ISPF colorimetric) in human placental homogenate
Assay type: biochemical

SMILES: N[C@@H](CCCCB(O)O)C(=O)O [ABH, 2(S)-amino-6-boronohexanoic acid]
- Ki: 4.78 ± 1.76 µM
